In patent US9155722B2, “Reconstitutable reverse thermal gelling polymers” (PROTHERICS SALT LAKE CITY, INC., priority 2009, dated 2015):

Tests used:
physchem = assay: physchem
Procedure: For solubilization studies, the calculated amount of Paclitaxel was add to the block polymers aqueous solution (prepared according to Example 5) and stirred for 10-20 minute at room temperature or 4° C.

[1] = Stability of paclitaxel in copolymer solution or gel; type: physicochemical
[2] = cited from earlier work

increase in solubility of paclitaxel (physchem): ~3000 fold
solubility (physchem; aqueous with cosolvent or surfactant or cyclodextrin, thermodynamic from solid): ≤ 12 mg/mL
paclitaxel intact ([1]; 23% by weight aqueous triblock copolymer solutions or gels, after 30 days in storage (2 to 8° C. and 37° C.)): > 90%
paclitaxel degraded ([1]; aqueous cosolvent solution, in less than one week at 37° C.): > 50%
SMILES: CC(=O)O[C@H]1C(=O)[C@@]2(C)[C@H]([C@H](OC(=O)c3ccccc3)[C@]3(O)C[C@H](OC(=O)[C@H](O)[C@@H](NC(=O)c4ccccc4)c4ccccc4)C(C)=C1C3(C)C)[C@]1(OC(C)=O)CO[C@@H]1C[C@@H]2O [paclitaxel]
solubility in water [2]: approximately 4 μg/ml
